For data set [1], the system named is Rattus norvegicus. In words: Antipsychotic activity in ip dosed Sprague-Dawley rat assessed as inhibition of amphetamine-induced stereotyped-behavior administered 15 mins post amphetamine-challenge measured for 4 hrs. It is filed as functional. The conditions noted are these: for minimal effective dose: read-out: MED.
For data set [2], the species on record is Rattus norvegicus. In words: Toxicity in Sprague-Dawley rat assessed as catalepsy at 10 times MED after 1 to 24 hrs relative to control. Format: organism-based. The conditions noted are these: in vivo.
The subject of data set [3] is Rattus norvegicus. In words: Antipsychotic activity in ip dosed Sprague-Dawley rat assessed as suppression of conditioned avoidance response after 30 mins. Format: functional.
The species entered for data set [4] is Rattus norvegicus. In words: Toxicity in Sprague-Dawley rat assessed as catalepsy at 10 times MED assessed as time required to reach peak effect. Format: organism-based. The conditions noted are these: in vivo.
Data set [5] has as its system Rattus norvegicus. In words: Antipsychotic activity in ip dosed Sprague-Dawley rat assessed as protection against epinephrine-induced mortality administered 1 hr prior to epinephrine-challenge measured up to 24 hrs. It is filed as functional.
Data set [6] concerns Rattus norvegicus. Put plainly: Relative adrenolytic potency, ratio of ED50 for protection against epinephrine-induced mortality in ip dosed Sprague-Dawley rat to MED for suppression of conditioned avoidance response in ip dosed Sprague-Dawley rat. It is filed as functional.
The subject of data set [7] is Rattus norvegicus. Put plainly: Ratio of MED for inhibition of amphetamine-induced stereotyped-behavior in ip dosed Sprague-Dawley rat to ED50 for suppression of conditioned avoidance response in ip dosed Sprague-Dawley rat. It is filed as functional.

With `COc1ccc([C@@]2(O)CCN3C[C@@H]4c5ccccc5CCc5cccc(c54)[C@H]3C2)cc1OC.Cl` (racemic), the inhibition result in the data set with Rattus norvegicus [1] was “Dose-dependent effect”. Also, the minimal effective dose with Rattus norvegicus [1] is 5 mg/kg. Moreover, the “%max” value in the data set filed under Rattus norvegicus [2] is 100%. In addition, the ED50 (in general, the dose that gives a 50% effect, or the effect in half of the subjects) in the data set on Rattus norvegicus [3] (0.5 h) is 6 mg/kg; in the data set on Rattus norvegicus [5], 1.1 mg/kg. Further, the Time in the data set listed under Rattus norvegicus [4] was found to be 4 h. In the data set with Rattus norvegicus [6], the Ratio is given as 0.22.
For `COc1ccc([C@@]2(O)CCN3C[C@@H]4c5ccccc5CCc5cccc(c54)[C@H]3C2)c(OC)c1.Cl` (racemic), in the data set on Rattus norvegicus [1], the inhibition entry was “Dose-dependent effect” and the minimal effective dose is 10 mg/kg. In addition, the “%max” value in the data set listed under Rattus norvegicus [2] worked out at 44%. Moreover, in the data set with Rattus norvegicus [3] (0.5 h), the ED50 turned out to be 16 mg/kg. Also, in the data set filed under Rattus norvegicus [4], the Time came to 6 h. In the data set with Rattus norvegicus [5], the 50% effective dose (ED50) stood at 18 mg/kg. Further, in the data set on Rattus norvegicus [6], the Ratio was 1.8.
With `Cl.O[C@]1(c2cccnc2)CCN2C[C@@H]3c4ccccc4CCc4cccc(c43)[C@H]2C1` (racemic), in the data set with Rattus norvegicus [1], the inhibition entry was “Dose-dependent effect” and the minimal effective dose was 5 mg/kg. In the data set listed under Rattus norvegicus [2], the “%max” value amounted to 94%. Also, the ED50 with Rattus norvegicus [3] (0.5 h) was determined as 1 mg/kg. Moreover, in the data set listed under Rattus norvegicus [4], the Time is 4 h. Also, in the data set on Rattus norvegicus [5], the ED50 stood at 4.7 mg/kg. The Ratio in the data set on Rattus norvegicus [6] turned out to be 0.94.
Turning to `Cl.O[C@]1(c2ccsc2)CCN2C[C@@H]3c4ccccc4CCc4cccc(c43)[C@H]2C1` (racemic), in the data set with Rattus norvegicus [1], the inhibition entry was “Dose-dependent effect” and the minimal effective dose is 5 mg/kg. For the same molecule, the “%max” value in the data set filed under Rattus norvegicus [2] amounted to 93%. In the data set with Rattus norvegicus [3] (0.5 h), the ED50 is 8 mg/kg. Further, the Time in the data set listed under Rattus norvegicus [4] came out at 6 h. The ED50 in the data set on Rattus norvegicus [5] was 90 mg/kg. The Ratio in the data set on Rattus norvegicus [6] turned out to be 18.
With `Cl.O[C@]1(c2cccc(F)c2)CCN2C[C@@H]3c4ccccc4CCc4cccc(c43)[C@H]2C1` (racemic), the inhibition entry in the data set on Rattus norvegicus [1] was “Dose-dependent effect”. In addition, in the data set on Rattus norvegicus [1], the minimal effective dose is 5 mg/kg. In addition, the “%max” value in the data set filed under Rattus norvegicus [2] worked out at 100%. Also, the ED50 in the data set with Rattus norvegicus [3] (0.5 h) was 7 mg/kg; in the data set with Rattus norvegicus [5], 14.3 mg/kg. The Time in the data set filed under Rattus norvegicus [4] came out at 4 h. Further, the Ratio in the data set on Rattus norvegicus [6] came out at 2.9.
In the case of `O=C(CCCN1CCC(O)(c2ccc(Cl)cc2)CC1)c1ccc(F)cc1` [HALOPERIDOL], in the data set on Rattus norvegicus [7], the Ratio amounted to 1.
On to `Cl.O[C@]1(c2cccs2)CCN2C[C@@H]3c4ccccc4CCc4cccc(c43)[C@H]2C1` (racemic), for which the inhibition result with Rattus norvegicus [1] was “Dose-dependent effect”. Further, the minimal effective dose in the data set with Rattus norvegicus [1] is 2.5 mg/kg. The “%max” value in the data set listed under Rattus norvegicus [2] is given as 100%. For the same molecule, the figures for the ED50 in the data set with Rattus norvegicus [3] (0.5 h) and in the data set on Rattus norvegicus [5] were 5.6 mg/kg and 22 mg/kg, respectively. Moreover, the Time in the data set filed under Rattus norvegicus [4] is 6 h. For the same molecule, the results for the Ratio with Rattus norvegicus [6] and in the data set on Rattus norvegicus [7] were 8.8 and 0.45, respectively.
Turning to Butaclamol, in the data set with Rattus norvegicus [1], the MED came out at 0.63 mg/kg. Moreover, the results for the ED50 in the data set on Rattus norvegicus [3] and in the data set on Rattus norvegicus [5] were 0.64 mg/kg and 15 mg/kg, respectively. The figures for the Ratio with Rattus norvegicus [6] and with Rattus norvegicus [7] were 24 and 1, respectively.
For `CN(C)CCCN1c2ccccc2Sc2ccc(Cl)cc21` [CHLORPROMAZINE], in the data set on Rattus norvegicus [7], the Ratio came to 1.
With `COc1cccc([C@@]2(O)CCN3C[C@@H]4c5ccccc5CCc5cccc(c54)[C@H]3C2)c1.Cl` (racemic), the inhibition entry in the data set with Rattus norvegicus [1] was “Dose-dependent effect”. Also, the minimal effective dose in the data set on Rattus norvegicus [1] was 1.25 mg/kg. In the data set filed under Rattus norvegicus [2], the “%max” value was 83%. In addition, the ED50 was 1.4 mg/kg in the data set with Rattus norvegicus [3] (0.5 h) and 2.7 mg/kg with Rattus norvegicus [5]. In addition, the Time in the data set filed under Rattus norvegicus [4] worked out at 6 h. Also, the Ratio in the data set on Rattus norvegicus [6] is 2.2.
Regarding `Cl.O[C@]1(c2ccc(Br)cc2)CCN2C[C@@H]3c4ccccc4CCc4cccc(c43)[C@H]2C1` (racemic), in the data set with Rattus norvegicus [1], the inhibition entry was “Dose-dependent effect” and the minimal effective dose is 20 mg/kg. For the same molecule, in the data set listed under Rattus norvegicus [2], the “%max” value was 72%. In addition, in the data set on Rattus norvegicus [3] (0.5 h), the ED50 came to 14 mg/kg. Further, the Time in the data set listed under Rattus norvegicus [4] turned out to be 4 h. Also, in the data set on Rattus norvegicus [5], the ED50 is 6.9 mg/kg. Besides, the Ratio in the data set on Rattus norvegicus [6] came to 0.35.
Turning to `Cl.O[C@]1(c2ccccc2Cl)CCN2C[C@@H]3c4ccccc4CCc4cccc(c43)[C@H]2C1` (racemic), in the data set on Rattus norvegicus [1], the inhibition result is “Dose-dependent effect” and the minimal effective dose came out at 2.5 mg/kg. For the same molecule, the “%max” value in the data set listed under Rattus norvegicus [2] was 100%. Also, the ED50 in the data set with Rattus norvegicus [3] (0.5 h) came out at 3.3 mg/kg. For the same molecule, in the data set filed under Rattus norvegicus [4], the Time amounted to 4 h. In addition, the ED50 in the data set with Rattus norvegicus [5] came to 11 mg/kg. The Ratio with Rattus norvegicus [6] was found to be 4.4.
Turning to `OCCN1CCN(CCCN2c3ccccc3Sc3ccc(C(F)(F)F)cc32)CC1` [FLUPHENAZINE], in the data set with Rattus norvegicus [7], the Ratio is reported as 1.
`COc1ccccc1[C@@]1(O)CCN2C[C@@H]3c4ccccc4CCc4cccc(c43)[C@H]2C1.Cl` (racemic): in the data set on Rattus norvegicus [1], the inhibition entry was “Dose-dependent effect” and the minimal effective dose is 0.63 mg/kg. Besides, the “%max” value in the data set filed under Rattus norvegicus [2] was determined as 89%. For the same molecule, in the data set on Rattus norvegicus [3] (0.5 h), the ED50 came to 0.92 mg/kg. Besides, the Time in the data set listed under Rattus norvegicus [4] is 4 h. Moreover, the ED50 in the data set on Rattus norvegicus [5] worked out at 4 mg/kg. The Ratio in the data set with Rattus norvegicus [6] is on record as 6.3.
For the molecule `Cl.O[C@]1(c2ccccc2)CCN2C[C@@H]3c4ccccc4CCc4cccc(c43)[C@H]2C1` (racemic), in the data set on Rattus norvegicus [1], the inhibition entry was “Dose-dependent effect” and the minimal effective dose stood at 2.5 mg/kg. In addition, in the data set filed under Rattus norvegicus [2], the “%max” value came out at 32%. Also, the ED50 in the data set on Rattus norvegicus [3] (0.5 h) came out at 3 mg/kg. Moreover, in the data set filed under Rattus norvegicus [4], the Time was determined as 6 h. For the same molecule, in the data set on Rattus norvegicus [5], the ED50 came out at 5.5 mg/kg. Besides, the Ratio in the data set with Rattus norvegicus [6] is listed as 2.2.
Turning to `Cl.O[C@]1(c2ccccc2C(F)(F)F)CCN2C[C@@H]3c4ccccc4CCc4cccc(c43)[C@H]2C1` (racemic), in the data set on Rattus norvegicus [1], the inhibition entry was “Dose-dependent effect”. The minimal effective dose with Rattus norvegicus [1] turned out to be 10 mg/kg. Moreover, the “%max” value in the data set listed under Rattus norvegicus [2] turned out to be 100%. Moreover, the ED50 was 22.2 mg/kg with Rattus norvegicus [3] (0.5 h) and greater than 20 mg/kg with Rattus norvegicus [5]. The Time in the data set filed under Rattus norvegicus [4] turned out to be 6 h. Also, the Ratio is reported as greater than 2 with Rattus norvegicus [6] and 0.45 in the data set on Rattus norvegicus [7].
As for `Cl.O[C@]1(c2ccco2)CCN2C[C@@H]3c4ccccc4CCc4cccc(c43)[C@H]2C1` (racemic), the inhibition result in the data set on Rattus norvegicus [1] is “Dose-dependent effect”. Moreover, in the data set on Rattus norvegicus [1], the minimal effective dose was 5 mg/kg. In the data set listed under Rattus norvegicus [2], the “%max” value turned out to be 83%. Also, the ED50 in the data set with Rattus norvegicus [3] (0.5 h) turned out to be 6.7 mg/kg; in the data set on Rattus norvegicus [5] it was 82 mg/kg. For the same molecule, the Time in the data set filed under Rattus norvegicus [4] amounted to 4 h. Moreover, in the data set on Rattus norvegicus [6], the Ratio came to 16.4.
With `Cc1ccccc1[C@@]1(O)CCN2C[C@@H]3c4ccccc4CCc4cccc(c43)[C@H]2C1.Cl` (racemic), in the data set on Rattus norvegicus [1], the inhibition result is “Dose-dependent effect”. Besides, in the data set on Rattus norvegicus [1], the minimal effective dose was found to be 1.25 mg/kg. For the same molecule, in the data set filed under Rattus norvegicus [2], the “%max” value is 61%. The ED50 in the data set on Rattus norvegicus [3] (0.5 h) was 3.3 mg/kg; with Rattus norvegicus [5] it was 6.4 mg/kg. Besides, in the data set filed under Rattus norvegicus [4], the Time worked out at 4 h. The results for the Ratio in the data set on Rattus norvegicus [6] and in the data set on Rattus norvegicus [7] were 5.1 and 0.38, respectively.
Take `COc1ccc([C@@]2(O)CCN3C[C@@H]4c5ccccc5CCc5cccc(c54)[C@H]3C2)cc1.Cl` (racemic): in the data set on Rattus norvegicus [1], the inhibition result is “Dose-dependent effect”. Besides, the minimal effective dose in the data set with Rattus norvegicus [1] stood at 2.5 mg/kg. The “%max” value in the data set listed under Rattus norvegicus [2] is on record as 83%. For the same molecule, the ED50 came out at 5.8 mg/kg in the data set with Rattus norvegicus [3] (0.5 h) and 13.2 mg/kg with Rattus norvegicus [5]. Further, the Time in the data set listed under Rattus norvegicus [4] turned out to be 6 h. Besides, the Ratio in the data set with Rattus norvegicus [6] was determined as 5.3; in the data set on Rattus norvegicus [7], 0.43.
For `CSc1ccc2c(c1)N(CCC1CCCCN1C)c1ccccc1S2` (stereo unspecified) [THIORIDAZINE], in the data set with Rattus norvegicus [7], the Ratio was 1.
As to `Cl.O[C@]1(Cc2ccccc2)CCN2C[C@@H]3c4ccccc4CCc4cccc(c43)[C@H]2C1` (racemic), in the data set with Rattus norvegicus [1], the inhibition result was “Dose-dependent effect” and the minimal effective dose is greater than 20 mg/kg. Also, the ED50 in the data set with Rattus norvegicus [5] was greater than 40 mg/kg.

The values are drawn from ChEMBL document CHEMBL3244311, “Neuroleptics related to butaclamol. Synthesis and some psychopharmacological effects of a series of 3-aryl analogues” (J Med Chem, 1978).
